In PubChem BioAssay AID2060485 (Molecular Pharmacology Branch, DTP, NCI, 2025):

System: A375 multi-cell spheroids with HUVEC/MSC, viability
Test: Anticancer human tumor A375 cell line growth inhibition [GQUAD];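 note: spheroids exposed to compounds for seven days before readout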
Details: for IC50: curve of first compound; for viability, T/C: stronger effect = lower value; active = viability on the fitted dose curve at most 10% of control; inactive = the rest
Outline: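 Multi-cell-type spheroids of tumor cells with HUVEC and mesenchymal stem cells, treated with drug combinations. Concentrations descend in half-log steps from near clinical Cmax, or from 10 microM where Cmax is unknown; viability read-out.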

[1] = second compound 0.0316 µM, first compound 0.0316 µM
[2] = second compound 0.0316 µM, first compound 0.1 µM
[3] = second compound 0.0316 µM, first compound 0.316 µM
[4] = second compound 0.0316 µM, first compound 1 µM
[5] = second compound 0.0316 µM, first compound 3.16 µM
[6] = second compound 0.0316 µM, first compound 10 µM
[7] = second compound 0.1 µM, first compound 0.0316 µM
[8] = second compound 0.1 µM, first compound 0.1 µM
[9] = second compound 0.1 µM, first compound 0.316 µM
[10] = second compound 0.1 µM, first compound 1 µM
[11] = second compound 0.1 µM, first compound 3.16 µM
[12] = second compound 0.1 µM, first compound 10 µM
[13] = second compound 0.316 µM, first compound 0.0316 µM
[14] = second compound 0.316 µM, first compound 0.1 µM
[15] = second compound 0.316 µM, first compound 0.316 µM
[16] = second compound 0.316 µM, first compound 1 µM
[17] = second compound 0.316 µM, first compound 3.16 µM
[18] = second compound 0.316 µM, first compound 10 µM
[19] = second compound 1 µM, first compound 0.0316 µM
[20] = second compound 1 µM, first compound 0.1 µM
[21] = second compound 1 µM, first compound 0.316 µM
[22] = second compound 1 µM, first compound 1 µM
[23] = second compound 1 µM, first compound 3.16 µM
[24] = second compound 1 µM, first compound 10 µM
[25] = second compound 3.16 µM, first compound 0.0316 µM
[26] = second compound 3.16 µM, first compound 0.1 µM
[27] = second compound 3.16 µM, first compound 0.316 µM
[28] = second compound 3.16 µM, first compound 1 µM
[29] = second compound 3.16 µM, first compound 3.16 µM
[30] = second compound 3.16 µM, first compound 10 µM
[31] = second compound 10 µM, first compound 0.0316 µM
[32] = second compound 10 µM, first compound 0.1 µM
[33] = second compound 10 µM, first compound 0.316 µM
[34] = second compound 10 µM, first compound 1 µM
[35] = second compound 10 µM, first compound 3.16 µM
[36] = second compound 10 µM, first compound 10 µM

C#Cc1c(F)ccc2cc(O)cc(-c3ncc4c(N5CC6CCC(C5)N6)nc(OCC56CCCN5CC(F)C6)nc4c3F)c12 (stereo unspecified) + Cc1[nH]c2ccc(F)cc2c1-c1nc2c3cccnc3c3ncccc3c2[nH]1
inactive: viability, T/C [1] 102% | viability, T/C [2] 99.5% | viability, T/C [3] 97.1% | viability, T/C [4] 107% | viability, T/C [5] 97.2% | viability, T/C [6] 97.1% | viability, T/C [7] 104% | viability, T/C [8] 104% | viability, T/C [9] 99.4% | viability, T/C [10] 102% | viability, T/C [11] 101% | viability, T/C [12] 102% | viability, T/C [13] 105% | viability, T/C [14] 104% | viability, T/C [15] 96.7% | viability, T/C [16] 101% | viability, T/C [17] 101% | viability, T/C [18] 101% | viability, T/C [19] 113% | viability, T/C [20] 104% | viability, T/C [21] 94.2% | viability, T/C [22] 97.2% | viability, T/C [23] 105% | viability, T/C [24] 103% | viability, T/C [25] 81.8% | viability, T/C [26] 71.6% | viability, T/C [27] 74.2% | viability, T/C [28] 84.7% | viability, T/C [29] 62.3% | viability, T/C [30] 35.6% | viability, T/C [31] 86.5% | viability, T/C [32] 86.9% | viability, T/C [33] 94.4% | viability, T/C [34] 79.8% | viability, T/C [35] 78% | viability, T/C [36] 61.8%
5370 nM: IC50 (second compound 3.16 µM)
> 10000 nM: IC50 (second compound 0.0316 µM) | IC50 (second compound 0.1 µM) | IC50 (second compound 0.316 µM) | IC50 (second compound 1 µM) | IC50 (second compound 10 µM)

CC(=O)O[C@H]1C(=O)[C@@]2(C)[C@H]([C@H](OC(=O)c3ccccc3)[C@]3(O)C[C@H](OC(=O)[C@H](O)[C@@H](NC(=O)c4ccccc4)c4ccccc4)C(C)=C1C3(C)C)[C@]1(OC(C)=O)CO[C@@H]1C[C@@H]2O + Cc1[nH]c2ccc(F)cc2c1-c1nc2c3cccnc3c3ncccc3c2[nH]1
50.9 nM: IC50 (second compound 1 µM)
52.5 nM: IC50 (second compound 0.316 µM)
52.3 nM: IC50 (second compound 0.1 µM)
< 31.6 nM: IC50 (second compound 3.16 µM) | IC50 (second compound 10 µM)
46.8 nM: IC50 (second compound 0.0316 µM)
active: viability, T/C [3] 9.66% | viability, T/C [4] 8.81% | viability, T/C [5] 9.39% | viability, T/C [6] 10.1%
inactive: viability, T/C [1] 67.1% | viability, T/C [2] 16.8% | viability, T/C [7] 73.9% | viability, T/C [8] 19.3% | viability, T/C [9] 10.3% | viability, T/C [10] 11.5% | viability, T/C [11] 7.58% | viability, T/C [12] 12.6% | viability, T/C [13] 72.2% | viability, T/C [14] 21.9% | viability, T/C [15] 11.6% | viability, T/C [16] 11.8% | viability, T/C [17] 10.5% | viability, T/C [18] 13.2% | viability, T/C [19] 68.5% | viability, T/C [20] 23.8% | viability, T/C [21] 14.5% | viability, T/C [22] 13.7% | viability, T/C [23] 13.9% | viability, T/C [24] 17.3% | viability, T/C [25] 25.6% | viability, T/C [26] 16% | viability, T/C [27] 15% | viability, T/C [28] 19.8% | viability, T/C [29] 14.5% | viability, T/C [30] 12.9% | viability, T/C [31] 33.6% | viability, T/C [32] 22.9% | viability, T/C [33] 18.8% | viability, T/C [34] 18.8% | viability, T/C [35] 17.9% | viability, T/C [36] 18.8%

CC(C)(O)C1CCC(Nc2ccc3ncc(-c4cccc(C(F)(F)F)c4)n3n2)CC1 (stereo unspecified) + Cc1[nH]c2ccc(F)cc2c1-c1nc2c3cccnc3c3ncccc3c2[nH]1
inactive: viability, T/C [1] 99.5% | viability, T/C [2] 100% | viability, T/C [3] 96.5% | viability, T/C [4] 112% | viability, T/C [5] 94.4% | viability, T/C [6] 92.1% | viability, T/C [7] 103% | viability, T/C [8] 110% | viability, T/C [9] 97.3% | viability, T/C [10] 113% | viability, T/C [11] 84.7% | viability, T/C [12] 87.6% | viability, T/C [13] 98.5% | viability, T/C [14] 102% | viability, T/C [15] 105% | viability, T/C [16] 100% | viability, T/C [17] 77.6% | viability, T/C [18] 86.1% | viability, T/C [19] 106% | viability, T/C [20] 104% | viability, T/C [21] 101% | viability, T/C [22] 93.6% | viability, T/C [23] 47.4% | viability, T/C [24] 73.7% | viability, T/C [25] 49.7% | viability, T/C [26] 52.3% | viability, T/C [27] 39% | viability, T/C [28] 30.2% | viability, T/C [29] 10.4% | viability, T/C [30] 20.4% | viability, T/C [31] 76.7% | viability, T/C [32] 82.9% | viability, T/C [33] 72.3% | viability, T/C [34] 46.9% | viability, T/C [35] 16.2% | viability, T/C [36] 42.3%
845 nM: IC50 (second compound 10 µM)
> 10000 nM: IC50 (second compound 0.0316 µM) | IC50 (second compound 0.1 µM) | IC50 (second compound 0.316 µM) | IC50 (second compound 1 µM)
66.7 nM: IC50 (second compound 3.16 µM)
